Experimental data published in PubChem BioAssay AID1919014 (Molecular Pharmacology Branch, DTP, NCI, 2023).

Test system: NCI-H1341 complex spheroids, percent test/control
Test: Anticancer human tumor NCI-H1341 cell line growth inhibition [AhR];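 also: spheroids exposed to agents for seven days before readout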
Conditions: for IC50: curve of first compound; for viability, T/C: stronger effect = lower value
Outline: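 Agents were dosed in half-log steps down from roughly clinical Cmax, or from 10 microM where Cmax was unknown, alone and with AhR antagonists. Read-out: percent test/control growth of tumor spheroids containing HUVEC and MSC stromal cells.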

CC(C)c1c(-c2ccccc2)nc2c(C#N)c[nH]n2c1=O + Cc1cncc(-c2nc(NCCc3c[nH]c4ccccc34)c3ncn(C(C)C)c3n2)c1
IC50 (second compound 0.1 µM): > 10 µM | IC50 (second compound 0.316 µM): > 10 µM | IC50 (second compound 1 µM): > 10 µM | IC50 (second compound 3.16 µM): > 10 µM | IC50 (second compound 10 µM): < 0.0316 µM | viability, T/C (second compound 0.1 µM, first compound 0.0316 µM): 90.7% | viability, T/C (second compound 0.1 µM, first compound 0.1 µM): 83.7% | viability, T/C (second compound 0.1 µM, first compound 0.316 µM): 86.6% | viability, T/C (second compound 0.1 µM, first compound 1 µM): 81.3% | viability, T/C (second compound 0.1 µM, first compound 3.16 µM): 69.6% | viability, T/C (second compound 0.1 µM, first compound 10 µM): 58% | viability, T/C (second compound 0.316 µM, first compound 0.0316 µM): 75.5% | viability, T/C (second compound 0.316 µM, first compound 0.1 µM): 87.2% | viability, T/C (second compound 0.316 µM, first compound 0.316 µM): 95.5% | viability, T/C (second compound 0.316 µM, first compound 1 µM): 75.1% | viability, T/C (second compound 0.316 µM, first compound 3.16 µM): 75.8% | viability, T/C (second compound 0.316 µM, first compound 10 µM): 72.5% | viability, T/C (second compound 1 µM, first compound 0.0316 µM): 75.9% | viability, T/C (second compound 1 µM, first compound 0.1 µM): 78.6% | viability, T/C (second compound 1 µM, first compound 0.316 µM): 78.5% | viability, T/C (second compound 1 µM, first compound 1 µM): 75.3% | viability, T/C (second compound 1 µM, first compound 3.16 µM): 78.9% | viability, T/C (second compound 1 µM, first compound 10 µM): 68% | viability, T/C (second compound 3.16 µM, first compound 0.0316 µM): 79.9% | viability, T/C (second compound 3.16 µM, first compound 0.1 µM): 73.6% | viability, T/C (second compound 3.16 µM, first compound 0.316 µM): 74.6% | viability, T/C (second compound 3.16 µM, first compound 1 µM): 67.6% | viability, T/C (second compound 3.16 µM, first compound 3.16 µM): 63.5% | viability, T/C (second compound 3.16 µM, first compound 10 µM): 67.4% | viability, T/C (second compound 10 µM, first compound 0.0316 µM): 18% | viability, T/C (second compound 10 µM, first compound 0.1 µM): 20.1% | viability, T/C (second compound 10 µM, first compound 0.316 µM): 21% | viability, T/C (second compound 10 µM, first compound 1 µM): 20.2% | viability, T/C (second compound 10 µM, first compound 3.16 µM): 16.2% | viability, T/C (second compound 10 µM, first compound 10 µM): 19.5%
